Results published in patent US5622933A, “Multiple branch peptide constructions for use against HIV” (priority 1993, dated 1997).
“And” between values parts separate entries of the source, which are not always exact repeats. Identical values can stand only once. Like-named read-outs stand apart in the source and are kept apart here. Ends that are not written are not given here.

How the values were obtained:
HIV-1 (IIIB) = assay type: cell-based; settings: for number of syncytia (HIV-1 induced cell fusion): 24 hours
Excerpt: 50×10^3 8E5 cells chronically infected with a RT-deficient HIV-I (IIIB) isolate, were co-cultivated with 150×10^3 phytohemagglutinin (PHA) stimulated human peripheral blood lymphocytes (PBLs) in the presence of the indicated peptide in 96-well plates. The MBPCs used are described by the peptides attached, and the number thereof, to a core lysine matrix, which is designated HLC. All amino acids used for this experiment were in dextro form.

New Zealand rabbits = test: Immunogenicity in rabbits (serum ELISA for anti MBPC.3 antibodies); assay type: in vivo, rabbit; settings: coat GPGRAF monomer 10 μg/ml
Procedure: […] This procedure was repeated subcutaneously with incomplete Freud's adjuvant on days 30, 60, 90 and 120. Sera were tested by ELISA, looking for specific anti MBPC.3 antibodies. Data presented here is from the last serum samples (120+7 days).
(§1) […] After saturation with 400 μL of casein (5 g/100 ml), different serum dilutions were added for 2 hours at 37° C. The controls were sera from non-immunized rabbits and mice. After rinsing (5×), 50 μl of 1:5000 of peroxidase-labeled swine anti-rabbit IgG or anti-mouse IgG (Dakopatts, Copenhagen, Denmark) were added for 1 hour at 37° C. After further rinsing (5×), 100 μl of ortho-phenylenediamine were added for 30 min in the dark at room temperature. The reaction was stopped by adding 50 μl of 4N sulfuric acid, and optical density (OD) ratios were determined at 492/620 nm.

C57/BL6 black mice = test: Immunogenicity in mice (serum ELISA for anti-MBPC3 antibody); assay type: in vivo, mouse; settings: coat GPGRAF monomer 10 μg/ml, listed as Mo
Procedure: The injection route was intraperitoneal. The blood samples were collected by sub-orbital eye punction. The blood samples were left for 1 hour at 37° C., then overnight at 4° C., and the supernatants (serum samples) thus obtained were separated from the pellets. Sera were tested by ELISA, looking for specific anti-MBPC3 antibody.
as §1

Row | Substance | inhibition of syncytia formation / cell fusion, in words (HIV-1 (IIIB)) | number of syncytia (HIV-1 induced cell fusion) (HIV-1 (IIIB); 5 × 10^-5 M) | number of syncytia (HIV-1 induced cell fusion) (HIV-1 (IIIB); 5 × 10^-6 M) | number of syncytia (HIV-1 induced cell fusion) (HIV-1 (IIIB); 5 × 10^-7 M) | further results
1 | [IGPGRAF]8 -MLC (also: octameric multibranched MLC construct) | significant loss of activity | - (- indicates the total absence of syncytia in the well) | ± | +++ | 
2 | GPGRAF [Mono.3, GPGRAF, reference compound] |  |  |  |  | optical density (OD) ratio 492/620 nm (×10^3) (New Zealand rabbits; plate 1, rabbit serum 10^-2): 2000; optical density (OD) ratio 492/620 nm (×10^3) (New Zealand rabbits; plate 1, rabbit serum 10^-3): 2000; optical density (OD) ratio 492/620 nm (×10^3) (New Zealand rabbits; plate 1, rabbit serum 10^-4, listed as Mo): 677 and 725; optical density (OD) ratio 492/620 nm (×10^3) (New Zealand rabbits; plate 2, rabbit serum 10^-2): 2000; optical density (OD) ratio 492/620 nm (×10^3) (New Zealand rabbits; plate 2, rabbit serum 10^-3, listed as Mo): 2000 and 1909; optical density (OD) ratio 492/620 nm (×10^3) (New Zealand rabbits; plate 2, rabbit serum 10^-4, listed as Mo): 588 and 625; optical density (OD) ratio 492/620 nm (×10^3) (New Zealand rabbits; plate 4, rabbit serum 10^-2): 811; optical density (OD) ratio 492/620 nm (×10^3) (New Zealand rabbits; plate 4, rabbit serum 10^-3, listed as Mo): 245 and 194; optical density (OD) ratio 492/620 nm (×10^3) (C57/BL6 black mice; plate 1, mouse serum 10^-2): 1224 and 1135; optical density (OD) ratio 492/620 nm (×10^3) (C57/BL6 black mice; plate 1, mouse serum 10^-3): 310 and 287; optical density (OD) ratio 492/620 nm (×10^3) (C57/BL6 black mice; plate 1, mouse serum 10^-4): 104 and 185; optical density (OD) ratio 492/620 nm (×10^3) (C57/BL6 black mice; plate 2, mouse serum 10^-2): 1539 and 1575; optical density (OD) ratio 492/620 nm (×10^3) (C57/BL6 black mice; plate 2, mouse serum 10^-3): 342 and 335; optical density (OD) ratio 492/620 nm (×10^3) (C57/BL6 black mice; plate 2, mouse serum 10^-4): 95 and 126; optical density (OD) ratio 492/620 nm (×10^3) (C57/BL6 black mice; plate 4, mouse serum 10^-2): 1231 and 1317; optical density (OD) ratio 492/620 nm (×10^3) (C57/BL6 black mice; plate 4, mouse serum 10^-3): 380 and 386; optical density (OD) ratio 492/620 nm (×10^3) (C57/BL6 black mice; plate 4, mouse serum 10^-4): 123 and 122
3 | RAFVTIGK [RAFVTIGK (SEQ ID NO:6), reference compound] |  | - (- indicates the total absence of syncytia in the well) | +++ | +++ | 
4 | [GPGRA]8 -MLC | did not inhibit cell fusion | +++ | +++ | +++ | 
5 | [Ac-GPGRAF]8 -MLC (also: eight copies on MLC (multibranched lysine core)) [N-terminal acetylation] | significant loss of activity | - (- indicates the total absence of syncytia in the well) | +++ | +++ | 
6 | [GPGR]8 -MLC | did not inhibit cell fusion | +++ | +++ | +++ | 
